From patent US20080312192A1, “Diaryl Urea Derivatives in the Treatment of Protein Kinase Dependent Diseases” (priority 2003, published 2008)

Molecular target: T1, Flt-3 (Homo sapiens, UniProt P36888)
T1 construct: amino acids 563-993 of the cytoplasmic kinase domain of human Flt-3; made in house; host or cells: Sf9 insect cells (baculovirus, vector pFbacG01)
T1 sequence (P36888 563-993): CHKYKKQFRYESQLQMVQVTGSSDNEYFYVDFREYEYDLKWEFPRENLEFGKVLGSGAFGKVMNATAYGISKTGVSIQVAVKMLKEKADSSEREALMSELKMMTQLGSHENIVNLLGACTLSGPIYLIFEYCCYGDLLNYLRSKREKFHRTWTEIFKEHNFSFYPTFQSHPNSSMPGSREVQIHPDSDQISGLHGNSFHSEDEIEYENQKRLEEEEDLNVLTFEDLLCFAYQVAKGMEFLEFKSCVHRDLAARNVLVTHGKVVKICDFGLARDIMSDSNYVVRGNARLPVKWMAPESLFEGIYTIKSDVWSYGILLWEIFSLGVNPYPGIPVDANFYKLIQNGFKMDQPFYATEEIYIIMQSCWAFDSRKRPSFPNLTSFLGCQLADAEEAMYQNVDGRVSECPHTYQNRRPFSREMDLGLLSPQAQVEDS
Test: Flt-3 kinase inhibition (GST-Flt-3, 33P incorporation into poly(Glu,Tyr))
Format: biochemical
Procedure, shortened: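 GST-fused human Flt-3 kinase domain (aa 563-993) from Sf9 cells assayed with 3 μg/mL poly(Glu,Tyr) 4:1, 8.0 μM ATP plus [γ-33P]ATP, Mn2+/Mg2+, pH 7.6, 20 min at ambient temperature. 33P incorporation counted on PVDF; IC50 by linear regression, duplicates at four concentrations (usually 0.01-10 μM).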

SMILES | IC50 [µM]
Nc1cc(Oc2ccc(NC(=O)Nc3cc(CN4CCC4)cc(C(F)(F)F)c3)cc2)ncn1 [Example 4, N-[4-(6-Amino-pyrimidin-4-yloxy)-phenyl]-N′-(3-azetidin-1-ylmethyl-5-trifluoromethyl-phenyl)-urea] | 0.153
CNc1cc(Oc2ccc(NC(=O)Nc3cc(CN4CCN(C(C)C)CC4)cc(C(F)(F)F)c3)cc2)ncn1 [Example 6, N-[4-(6-Methylamino-pyrimidin-4-yloxy)-phenyl]-N′-[3-(4-isopropylpiperazin-1-ylmethyl)-5-trifluoromethyl-phenyl]-urea] | 0.4
CC(C)N1CCN(Cc2ccc(NC(=O)Nc3ccc(Oc4cc(N)ncn4)cc3)cc2C(F)(F)F)CC1 [Example 19, N-[4-(6-Amino-pyrimidin-4-yloxy)-phenyl]-N′-[4-(4-isopropylpiperazin-1-ylmethyl)-3-trifluoromethyl-phenyl]-urea] | 0.25
CNc1nccc(Oc2ccc(NC(=O)Nc3ccc(N4CCN(C)CC4)c(C(F)(F)F)c3)cc2)n1 [Example 53d, 1-[4-(2-Methylamino-pyrimidin-4-yloxy)-phenyl]-3-[4-(4-methyl-piperazin-1-yl)-3-trifluoromethyl-phenyl]-urea] | 0.19

Now those with a lower IC50, led by results:

IC50 [µM] | SMILES
0.12 | CC(C)(C)N1CCN(Cc2ccc(NC(=O)Nc3ccc(Oc4ccnc(N)n4)cc3)cc2C(F)(F)F)CC1 [Example 50]
0.12 | CN1CCN(Cc2ccc(NC(=O)Nc3ccc(Oc4ccnc(N)n4)cc3)cc2C(F)(F)F)CC1 [Example 52a, 1-[4-(2-amino-pyrimidin-4-yloxy)-phenyl]-3-[4-(4-methylpiperazin-1-ylmethyl)-3-trifluoromethyl-phenyl]-urea]
0.12 | CNc1nccc(Oc2ccc(NC(=O)Nc3cc(N4CCN(C)CC4)cc(C(F)(F)F)c3)cc2)n1 [Example 53b, 1-[4-(2-Methylamino-pyrimidin-4-yloxy)-phenyl]-3-[3-(4-methyl-piperazin-1-yl)-5-trifluoromethyl-phenyl]-urea]
0.085 | Cc1ncn(Cc2ccc(NC(=O)Nc3ccc(Oc4ccnc(N)n4)cc3)cc2C(F)(F)F)c1C [Example 51a.1, 1-[4-(2-Amino-pyrimidin-4-yloxy)-phenyl]-3-(4-(4,5-dimethyl-imidazol-1-ylmethyl)-3-trifluoromethyl-phenyl]-urea]
0.029 | CCN1CCN(Cc2ccc(NC(=O)Nc3ccc(Oc4ccnc(N)n4)cc3)cc2C(F)(F)F)CC1 [Example 52c, 1-[4-(2-Amino-pyrimidin-4-yloxy)-phenyl]-3-[4-(4-ethyl-piperazin-1-ylmethyl)-3-trifluoromethyl-phenyl]-urea]
